Experimental data from the NIST ThermoML archive (doi:10.1016/j.jct.2017.03.006).

Assay: xn = mol fraction of the nth substance listed
Details: Liquid; for mass density: 293.15 K, Vibrating tube method; for viscosity: 100 kPa, Concentric cylinders viscometry

Cc1ccc(C)c(C)c1 [1,2,4-trimethylbenzene] + CCCCO
Details	mass density, 60000 kPa [kg/m3]	mass density, 70000 kPa [kg/m3]	mass density, 80000 kPa [kg/m3]	mass density, 90000 kPa [kg/m3]	mass density, 100000 kPa [kg/m3]	mass density, 120000 kPa [kg/m3]	mass density, 140000 kPa [kg/m3]	viscosity, 303.15 K [mPa·s]	viscosity, 313.15 K [mPa·s]
x2 = 0	–	912.6	916.9	921.1	925.1	932.8	939.9	0.779	0.692
x2 = 0.1002	–	–	–	–	–	–	–	0.783	0.69
x2 = 0.1005	–	908.3	912.6	916.8	920.8	928.6	935.6	–	–
x2 = 0.2261	–	901.9	906.4	910.6	914.7	922.5	929.8	–	–
x2 = 0.2327	–	–	–	–	–	–	–	0.818	0.716
x2 = 0.2999	893.6	898.4	902.8	907	911.1	918.9	926	–	–
x2 = 0.3	–	–	–	–	–	–	–	0.857	0.744
x2 = 0.3966	888.6	893.2	897.6	901.9	906	913.9	921.1	–	–
x2 = 0.3969	–	–	–	–	–	–	–	0.919	0.787
x2 = 0.5289	880.8	885.5	890	894.2	898.4	906.2	913.5	–	–
x2 = 0.53	–	–	–	–	–	–	–	1.049	–
x2 = 0.6367	873.8	878.6	883	887.4	891.5	899.3	906.7	–	–
x2 = 0.637	–	–	–	–	–	–	–	1.203	–
x2 = 0.7249	867.8	872.6	877	881.3	885.4	893.3	900.7	–	–
x2 = 0.7975	–	–	–	–	–	–	–	1.559	–
x2 = 0.7977	862.3	867	871.6	875.9	880	887.9	895.4	–	–
x2 = 0.9131	852.9	857.7	862.3	866.6	870.7	878.7	886.1	1.916	–
